Reference: patent publication US20250073209A1, “COVALENT TARGETING OF RhoA FOR CANCER THERAPY” (The University of Hong Kong, priority 2023, published 2025)

What was measured:
[1] = tested on: phosphorylated MLC (downstream effector of RhoA); assay: Western blotting of phosphorylated MLC, serum starvation-restimulation; assay type: cell-based, human; settings: HCT116, serum starvation-restimulation
Procedure: Anti-RhoA (#2117), anti-GAPDH (#2118), anti-phosphoMLC (#3671), anti-MLC (#3672), anti-FLAG (#8146), anti-GFP (#2956), and anti-GST (#2624) were purchased from Cell Signaling Technology. Cells were washed with PBS and then harvested using cell lysis buffer (1% Triton X100, 10 mM beta glycerol phosphate, 10 mM sodium pyrophosphate, 40 mM HEPES, 4 mM EDTA, pH7.4) with 4% protease/phosphatase inhibitor cocktail (Pierce). Protein samples were quantified using BCA assays (Pierce), normalized and then boiled with 4× Laemmli sampling buffer in 95° C. for 5 mins. Samples were resolved in 10% polyacrylamide gel (Biorad) and then transferred onto PVDF membrane (Biorad) and blocked with blocking buffer (5% bovine serum albumin (BSA) in Tris-buffered saline with 0.1% Tween 20 (TBST)) for 1 h. Membrane was washed in TBST, followed by incubation with corresponding primary antibodies (diluted 1:1000 in 5% BSA/milk in TBST with 1% NaN3) overnight at 4° C. After washing thrice with TBST, the membrane was incubated with HRP-conjugated secondary antibodies (#7074 or 7076) for one hour at room temperature. The membrane was then incubated with LumiGlo reagent (Cell Signaling Technology) and chemiluminescence was captured using a Chemidoc (Biorad).
The effects of CL16 on RhoA downstream signals in CRCs with serum starvation-restimulation were examined.

RhoA [2] = molecular target: T1, RhoA (Homo sapiens, UniProt P61586); assay: RhoA-GTP rhotekin pull-down, serum starvation-re-stimulation; assay type: cell-based; design: endogenous in cells; host or cells: HCT116, HT29
Procedure: RhoA Pull-Down Activation Assay Biochem Kit (#BK036) was purchased from Cytoskeleton. According to the manufacturer's protocol, total cell lysate (0.5 mg/mL; 300 μL) was added to 7.5 μL of Rhotekin-Rho Binding Domain beads in 0.6 mL tubes. The solution mixture was incubated at 4° C. on an end-to-end rotator for 1 hour. Beads were washed with 500 μL of washing buffer once, then centrifuged at 5000g for 3 min and the supernatant was discarded. RhoA-GTP was then eluted in 2× laemmli buffer and resolved in 10% SDS-PAGE.
GTP loading onto RhoA is critical for the protein activation and mediating downstream signals. In view of the inhibitions of GDP-to-GTP exchange of RhoA by CL16 in vitro as discussed above, effects of CL16 on RhoA biology in colorectal cancer cells were examined. In the serum starvation-re-stimulation experiment, HCT116 cells were grown in serum-free medium with CL16, Rhosin or solvent control for 24 h, followed by stimulation with 10% FBS for 10 min. The cells were then lysed and the RhoA activity was assayed by the level of RhoA-GTP, which is the active form of RhoA. […] HT29 cells were incubated with solvent vehicle, CL16 or Rhosin in complete medium for 24 h. […] Confocal fluorescence images from HCT116 and HT29 cells expressing FRET RhoA-biosensor in the serum starvation-restimulation experiment were taken.

RhoA [3] = molecular target: T1, RhoA; assay: Gel-based competitive ABPP (iodoacetamide-rhodamine) on purified RhoA; design: purchased ab101594; settings: competition with IA-Rh, dose-dependent experiments; read-out: IC50 of the competitive binding / in vitro RhoA binding
Procedure: Recombinant human RhoA (0.1 μg; ab101594) was pretreated with cysteine-reactive compounds or DMSO for 1 hour at room temperature, followed by incubation with iodoacetamide-rhodamine (IA-Rh; 1 μM) for 1 hour at room temperature. The reaction was then quenched by boiling in sampling buffer. Samples were subjected to SDS-PAGE to separate proteins bands. In-gel fluorescence intensity was measured with a Chemidoc using setting for Rhodamine. Gel was subsequently stained with silver stain (Pierce) for visualization of protein content and covalent modification. Band intensity was quantified using ImageJ.
CL16 was identified for its strong and specific binding with RhoA in covalent ligand screening experiment by ABPP. ABPP is known as a powerful platform for covalent ligand screening, particularly for the identification of lead compounds targeting new hotspots for therapy. Competitive gel-based activity-based protein profiling (ABPP) experiment was performed on purified RhoA protein for screening its interactions with a library of cysteine-reactive covalent ligands with acrylamide or chloroacetamide warheads. RhoA protein for the first screening and on Rac1 and Cdc42 for the second screening to identify lead compounds with specific binding onto RhoA Cys16. […] The reaction mixture was then resolved by SDS-PAGE and in-gel fluorescence was imaged (FIG. 1A). […]

T1 sequence (P61586 whole entry, the tested form may be a part): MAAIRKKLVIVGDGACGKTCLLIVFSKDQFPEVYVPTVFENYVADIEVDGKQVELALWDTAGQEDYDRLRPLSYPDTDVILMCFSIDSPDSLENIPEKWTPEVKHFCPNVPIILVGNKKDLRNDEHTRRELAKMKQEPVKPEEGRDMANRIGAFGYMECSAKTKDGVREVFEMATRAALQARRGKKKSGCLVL

Structure (SMILES): O=C(CCl)N1N=C(c2cc3ccccc3o2)CC1c1ccco1 (stereo not shown) [CL16]
- phosphorylation of MLC upon serum re-stimulation [1]: significantly eliminated the increases in phosphorylation of MLC
- RhoA-GTP level compared with Rhosin (RhoA [2]; 10 μM CL16 vs 30 μM Rhosin): lower RhoA-GTP level
- cellular RhoA-GTP level after serum stimulation vs solvent control (RhoA [2]; HCT116, serum-free 24 h, 10% FBS 10 min): much lower cellular RhoA-GTP levels
- IC50 (RhoA [3]): 440 nM
